Values quoted from earlier work as cited in paper PMC9370779, “Traditional Medicinal Uses, Phytochemistry, Biological Properties, and Health Applications of Vitex sp” (Plants, 2022).
Entries after “also recorded” stand apart in the source; their conditions may differ. Read-outs that look alike come from different tables or passages of the source.

Assays:
[1] = system: LPS-induced NO production; parameters: method as in doi:10.1177/1934578X19848178; settings: at lower doses/concentrations
[2] = system: lymphocytic leukemia (P388) cells; parameters: method as in PMID 9332026
[3] = parameters: method as in PMID 26034885
[4] = system: human colorectal carcinoma (HCT-116) cells; parameters: method as in PMID 26034885
[5] = system: human fetal lung fibroblast (MRC15) cells; parameters: method as in PMID 26034885
[6] = parameters: method as in PMID 23150078; settings: 100 mg/kg dose
[7] = parameters: method as in PMID 27118321; settings: ABTS stated for 131
T. b rhodesiense = system: T. b rhodesiense; parameters: method as in PMID 25886869
[8] = parameters: method as in doi:10.1016/j.phytol.2019.11.018
[9] = system: LPS-stimulated NO production
Plasmodium falciparum = system: Plasmodium falciparum; parameters: method as in PMID 32438132
cyclooxygenase-1 (COX-1) = system: cyclooxygenase-1 (COX-1); parameters: method as in PMID 11842334
[10] = system: African green monkey kidney (Vero) cell lines; parameters: method as in PMID 11842334
[11] = system: LPS-induced NO production; parameters: method as in PMID 31302252

COc1cc2c(cc1O)C(c1ccc(OC)c(OC)c1)C(CO)C(C=O)=C2 (stereo not drawn) [Compound 137, 6-hydroxy-4-(3,4-dimethoxyphenyl)-3-hydroxymethyl-7-methoxy-3,4-dihydro-2-naphthaldehyde]
inhibitory effects on NO generation [1]: minor effects of inhibitory

COC1C(COC(=O)C=Cc2ccc(O)c(O)c2)OC(c2c(O)cc3oc(-c4ccc(O)c(O)c4)cc(=O)c3c2O)C(O)C1O (stereo not drawn) [Compound 115, luteolin 6-C-(4″-methyl-6″-O-trans-caffeoylglucoside)]
cytotoxicity against P388 cells, IC50 values [2]: 7.6 µg/mL

C=C1CCC2C(C)(C)CCCC2(C)C1CC(O)C1=CC(=O)OC1 (stereo not drawn) [Compound 74, vitexolide E]
antibacterial activity [3]: moderate antibacterial | cytotoxic activity against HCT-116 cells [4]: cytotoxic activities; also recorded: cytotoxic activity | cytotoxic activity against MRC15 cells [5]: cytotoxic activities; also recorded: cytotoxic activity

CC1(C)CC[C@@H]([C@@](O)(CO)C2CC[C@@]3(O)C4=CC(=O)[C@@H]5C[C@@H](O)[C@@H](O)C[C@]5(C)C4CC[C@]23C)O1 (stereo partly drawn) [Compound 111, 21-hydroxyshidasterone]
anti-inflammatory activity in rat paw oedema development assay [6]: showed anti-inflammatory activity; also recorded: Exhibited anti-inflammatory activity in rat paw oedema development assay at 100 mg/kg dose

C=C1CC(O)C2C(C)(C)CCCC2(C)C1CC(O)C1=CC(=O)OC1O (stereo not drawn) [Compound 72, vitexolide B]
cytotoxic activity against HCT-116 cells [4]: cytotoxic activities; also recorded: Exhibited cytotoxic activity on the HCT-116 cell lines

COc1cc(-c2c(O)c(C(=O)O)cc3cc(OC)c(O)cc23)ccc1O [Compound 131, vitexnegheteroin G]
antioxidant activity [7]: antioxidant activity; also recorded: Exhibited antioxidant activities using ABTS scavenging activities

O=c1c(O)c(-c2ccc(O)cc2)oc2cc(O)cc(O)c12 [Compound 124, 2-(4-hydroxyphenyl)-3,5,7-trihydroxychromen-4-one]
trypanocidal activity (T. b rhodesiense): All compounds exhibited moderate trypanocidal activity against T. b rhodesiense

CO[C@H]1C[C@@H]2[C@@H](C(COC(=O)c3ccc(O)cc3)=C[C@H]2O)[C@H](OC)O1 [Compound 24, isonishindacin A]
percentage scavenging activities on stable free radicals [8]: 25.80%

CC1(C)CC[C@@H]([C@@H](CO)C2CC[C@@]3(O)C4=CC(=O)[C@@H]5C[C@@H](O)[C@@H](O)C[C@]5(C)C4CC[C@]23C)O1 (stereo partly drawn) [Compound 112, 11β-hydroxy-20-deoxyshidasterone]
anti-inflammatory activity in rat paw oedema development assay [6]: showed anti-inflammatory activity; also recorded: Exhibited anti-inflammatory activity in rat paw oedema development assay at 100 mg/kg dose

C=C1CC[C@H]2C(C)(C)CCC[C@]2(C)[C@H]1CC(O)/C(C)=C/C(=O)O (stereo partly drawn) [Compound 75, vitexolin A]
cytotoxic activity against HCT-116 cells [4]: cytotoxic activities; also recorded: Exhibited cytotoxic activity on the HCT-116 cell lines

CO[C@H]1O[C@H](COC(=O)c2ccc(O)cc2)[C@@H](O)[C@H](O)[C@H]1O [Compound 155, methyl (6-O-4-hydroxybenzoyl)-α-D-glucopyranoside]
antioxidant activity via ABTS radical scavenging assay: Exhibited antioxidant and NO inhibitory activities. | inhibitory activity on LPS-stimulated NO production [9]: Exhibited antioxidant and NO inhibitory activities.

O=C(OC[C@H]1O[C@@H](OC(=O)c2ccc(O)cc2)[C@H](O)[C@@H](O)[C@@H]1O)c1ccc(O)cc1 [Compound 157, 1,6-di-O-4-hydroxybenzoyl-β-D-glucopyranoside]
antioxidant activity via ABTS radical scavenging assay: Exhibited antioxidant and NO inhibitory activities. | inhibitory activity on LPS-stimulated NO production [9]: Exhibited antioxidant and NO inhibitory activities.

CC(C)C12C=CC3(OO1)C(CCC1C(C)(C)CCCC13C)C2 (stereo not drawn) [Compound 100, abieta-11(12)-ene-9α,13α-endoperoxide]
antimalarial activity (in words) (Plasmodium falciparum): exhibited antimalarial activity

C=C1CCC2C(C)(C)CCCC2(C)C1CC(O)C1=CC(=O)OC1O (stereo not drawn) [Compound 71, 12-epivitexolide A]
antibacterial activity [3]: moderate antibacterial | cytotoxic activity against HCT-116 cells [4]: cytotoxic activities; also recorded: cytotoxic activity | cytotoxic activity against MRC15 cells [5]: cytotoxic activities; also recorded: cytotoxic activity

O=C(OC[C@H]1O[C@@H](Oc2ccc(O)cc2)[C@H](O)[C@@H](O)[C@@H]1O)c1ccc(O)cc1 [Compound 156, breynioside A]
antioxidant activity via ABTS radical scavenging assay: Exhibited antioxidant and NO inhibitory activities. | inhibitory activity on LPS-stimulated NO production [9]: Exhibited antioxidant and NO inhibitory activities.

CC(C)[C@@]12C=C[C@@]3(OO1)[C@@H](CCC1C(C)(C)C[C@H](OC(=O)CC(=O)O)C[C@@]13C)C2 (stereo partly drawn) [Compound 100a]
antimalarial activity (in words) (Plasmodium falciparum): exhibited antimalarial activity

CC(C)[C@]12C=C[C@]3(OO1)[C@@H](CCC1C(C)(C)C[C@H](OC(=O)CC(=O)O)C[C@@]13C)C2 (stereo partly drawn) [Compound 101a]
antimalarial activity (in words) (Plasmodium falciparum): exhibited antimalarial activity

COc1cc(C(=O)OC2C[C@@H](O)[C@@H]3C=CO[C@@H](C[C@@H]4O[C@H](CO)[C@@H](O)[C@H](O)[C@H]4O)[C@H]23)ccc1O (stereo partly drawn) [Compound 7, pedunculariside]
IC50 value, inhibition of COX-2 (cyclooxygenase-2 (COX-2)): 150 ± 210 µg/mL | inhibition of COX-2 (in words) (cyclooxygenase-2 (COX-2)): preferential inhibition of COX-2 | COX-1 inhibition (in words) (cyclooxygenase-1 (COX-1)): low | COX-1 inhibition (in words) (cyclooxygenase-1 (COX-1); listed as pedunculariside): little inhibitory effect | cytotoxicity against Vero cell lines [10]: no cytotoxicity

C=C(CC(=O)O)C(=O)C[C@H]1C(=C)CC[C@H]2C(C)(C)CCC[C@]12C [Compound 76, vitexolin B]
antibacterial activity [3]: moderate antibacterial | cytotoxic activity against HCT-116 cells [4]: cytotoxic activities; also recorded: cytotoxic activity | cytotoxic activity against MRC15 cells [5]: cytotoxic activities; also recorded: cytotoxic activity

C=C1CC(O)C2C(C)(C)CCCC2(C)C1CC(O)C1CC(=O)OC1O (stereo not drawn) [Compound 73, vitexolide C]
cytotoxic activity against HCT-116 cells [4]: cytotoxic activities; also recorded: Exhibited cytotoxic activity on the HCT-116 cell lines

COc1cc(O[C@@H]2O[C@H](COC(=O)c3ccc(O)cc3)[C@@H](O)[C@H](O)[C@H]2O)ccc1O [Compound 158, dunnianoside D]
antioxidant activity via ABTS radical scavenging assay: Exhibited antioxidant and NO inhibitory activities. | inhibitory activity on LPS-stimulated NO production [9]: Exhibited antioxidant and NO inhibitory activities.

O=C(C=Cc1ccc(O)c(O)c1)OC1C(c2c(O)cc3oc(-c4ccc(O)c(O)c4)cc(=O)c3c2O)OC(CO)C(O)C1O (stereo not drawn) [Compound 117, luteolin 6-C-(2″-O-trans-caffeoylglucoside)]
cytotoxicity against P388 cells, IC50 values [2]: 56 µg/mL

COc1ccc([C@H]2c3c(ccc(O)c3OC)C=C(C=O)[C@@H]2CO)cc1OC [Compound 138, 6-hydroxy-4-(3,4-dimethoxyphenyl)-3-hydroxymethyl-5-methoxy-3,4-dihydro-2-napthaldehyde]
inhibitory effects on NO generation [1]: minor effects of inhibitory

2-(3′,4′-dimethoxyphenyl)-7-hydroxychromen-4-one [Compound 125]
trypanocidal activity (T. b rhodesiense): All compounds exhibited moderate trypanocidal activity against T. b rhodesiense

COc1cc(O)c2c(=O)c(OC)c(-c3ccc(O)cc3)oc2c1 [Compound 123, 2-(4′-hydroxyphenyl)-5-hydroxy-3,7-dimethoxy-chromen-4-one]
trypanocidal activity (T. b rhodesiense): All compounds exhibited moderate trypanocidal activity against T. b rhodesiense

C=CC1(C)CCC2C(C)(CCC3C(C)(C)CCCC32C)O1 (stereo not drawn) [Compound 102, 9αH-manoyl oxide]
antimalarial activity (in words) (Plasmodium falciparum): exhibited antimalarial activity

CC(C)C12C=CC3(OO1)C(CCC1C(C)(C)CCCC13C)C2 (stereo not drawn) [Compound 101, abieta-11(12)-ene-9β,13β-endoperoxide]
times more active than compound 100 (Plasmodium falciparum; Plasmodium falciparum): 54

CO[C@H]1CC2C(C=O)=C(C)CC2O1 (stereo partly drawn) [Compound 6, Tarumal]
COX-1 inhibition (in words) (cyclooxygenase-1 (COX-1)): low inhibition | cytotoxicity against Vero cell lines [10]: no cytotoxicity

COC1CC2C(O)C=C(COC(=O)c3ccc(O)cc3)C2C(OC)O1 (stereo not drawn) [Compound 23, ishindacin A]
percentage scavenging activities on stable free radicals [8]: 27.14%

CC1=C(CCC2=CCOC2=O)[C@@]2(C)CC[C@H](O[C@@H]3O[C@H](CO)[C@@H](O)[C@H](O)[C@H]3O)C(C)(C)[C@@H]2CC1 [Compound 97, (3S,5R,10S)-3-[(β-D-glucopyranosyl)oxy]-labd-8,13-dien-16,15-olide]
inhibition of LPS-induced NO production (in words) [11]: strong | IC50 ([11]; read-out: inhibition of NO production, IC50 value): 40.1 ± 1.3 µM

O=C(C=Cc1ccc(O)c(O)c1)OCC1OC(c2c(O)cc3oc(-c4ccc(O)c(O)c4)cc(=O)c3c2O)C(O)C(O)C1O (stereo not drawn) [Compound 116, luteolin 6-C-(6″-O-trans-caffeoylglucoside)]
cytotoxicity against P388 cells, IC50 values [2]: 14 µg/mL

COc1cc(-c2oc3cc(O)cc(O)c3c(=O)c2OC)ccc1O [Compound 122, 2-(5′-methoxyphenyl)-4′,5,7-trihydroxy-3-methoxychromen-4-one]
trypanocidal activity (T. b rhodesiense): All compounds exhibited moderate trypanocidal activity against T. b rhodesiense
